# Key:
# Homo sapiens = species on record: Homo sapiens; test: Selectivity ratio of Ki for human recombinant CB1 receptor to KI for human recombinant CB2 receptor
# Cannabinoid receptor 2 [1] = molecular target: T1, Cannabinoid receptor 2 (Homo sapiens, UniProt P34972); test: Displacement of [3H]CP-55940 from human recombinant CB2 receptor expressed in CHO cell membranes incubated for 60 mins by scintillation counting
# Cannabinoid receptor 1 [2] = molecular target: Cannabinoid receptor 1 (Homo sapiens, UniProt P21554); test: Displacement of [3H]CP-55940 from human recombinant CB1 receptor expressed in CHO cell membranes incubated for 90 mins by scintillation counting
# Cannabinoid receptor 2 [3] = molecular target: T2, Cannabinoid receptor 2 (Rattus norvegicus, UniProt Q9QZN9); test: Displacement of [3H]CP-55940 from CB2 receptor in Sprague-Dawley rat spleen by scintillation counting
# T2 sequence (Q9QZN9 whole entry): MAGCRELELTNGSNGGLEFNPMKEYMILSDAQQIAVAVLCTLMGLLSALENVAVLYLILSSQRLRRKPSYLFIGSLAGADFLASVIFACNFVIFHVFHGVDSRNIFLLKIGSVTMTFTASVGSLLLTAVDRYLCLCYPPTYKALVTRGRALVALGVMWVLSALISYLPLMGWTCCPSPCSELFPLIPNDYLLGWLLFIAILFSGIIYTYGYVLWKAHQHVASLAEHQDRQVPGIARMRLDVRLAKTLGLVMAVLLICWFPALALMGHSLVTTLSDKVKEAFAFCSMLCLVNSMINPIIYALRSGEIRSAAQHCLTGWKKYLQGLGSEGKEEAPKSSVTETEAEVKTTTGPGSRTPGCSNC
# Cannabinoid receptor 1 [4] = molecular target: Cannabinoid receptor 1 (Rattus norvegicus, UniProt P20272); test: Displacement of [3H]CP-55940 from CB1 receptor in Sprague-Dawley rat brain by scintillation counting
# Cannabinoid receptor 2 [5] = molecular target: T1, Cannabinoid receptor 2; test: Agonist activity at human recombinant CB2 receptor expressed in CHO cell membranes assessed as inhibition of forskolin-induced cAMP accumulation; format: functional, cell-based
# T1 sequence (P34972 whole entry): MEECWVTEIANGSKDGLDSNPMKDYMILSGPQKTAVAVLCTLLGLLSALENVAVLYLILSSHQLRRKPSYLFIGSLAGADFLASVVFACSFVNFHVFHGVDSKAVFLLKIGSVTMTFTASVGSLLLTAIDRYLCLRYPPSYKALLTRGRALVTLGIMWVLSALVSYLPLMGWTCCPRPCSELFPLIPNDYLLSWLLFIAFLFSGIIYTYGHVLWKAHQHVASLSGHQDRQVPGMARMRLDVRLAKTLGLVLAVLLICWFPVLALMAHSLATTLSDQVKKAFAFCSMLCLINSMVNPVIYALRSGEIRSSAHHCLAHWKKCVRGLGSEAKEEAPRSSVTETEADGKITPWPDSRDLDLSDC
# Sequence of Cannabinoid receptor 1 (Rattus norvegicus, UniProt P20272) (P20272 whole entry): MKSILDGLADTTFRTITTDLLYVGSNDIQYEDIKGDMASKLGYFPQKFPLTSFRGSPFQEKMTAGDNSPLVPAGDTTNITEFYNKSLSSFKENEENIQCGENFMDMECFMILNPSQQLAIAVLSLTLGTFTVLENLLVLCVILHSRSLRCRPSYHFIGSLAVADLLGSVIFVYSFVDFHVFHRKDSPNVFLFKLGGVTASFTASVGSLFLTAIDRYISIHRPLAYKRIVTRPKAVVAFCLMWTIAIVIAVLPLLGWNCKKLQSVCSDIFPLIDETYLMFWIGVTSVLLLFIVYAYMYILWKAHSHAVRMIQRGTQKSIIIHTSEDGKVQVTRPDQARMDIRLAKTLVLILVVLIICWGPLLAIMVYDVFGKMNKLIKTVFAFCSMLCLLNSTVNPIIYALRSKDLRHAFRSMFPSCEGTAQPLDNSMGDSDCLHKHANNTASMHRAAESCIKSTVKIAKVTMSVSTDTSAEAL
# Sequence of Cannabinoid receptor 1 (Homo sapiens, UniProt P21554) (P21554 whole entry): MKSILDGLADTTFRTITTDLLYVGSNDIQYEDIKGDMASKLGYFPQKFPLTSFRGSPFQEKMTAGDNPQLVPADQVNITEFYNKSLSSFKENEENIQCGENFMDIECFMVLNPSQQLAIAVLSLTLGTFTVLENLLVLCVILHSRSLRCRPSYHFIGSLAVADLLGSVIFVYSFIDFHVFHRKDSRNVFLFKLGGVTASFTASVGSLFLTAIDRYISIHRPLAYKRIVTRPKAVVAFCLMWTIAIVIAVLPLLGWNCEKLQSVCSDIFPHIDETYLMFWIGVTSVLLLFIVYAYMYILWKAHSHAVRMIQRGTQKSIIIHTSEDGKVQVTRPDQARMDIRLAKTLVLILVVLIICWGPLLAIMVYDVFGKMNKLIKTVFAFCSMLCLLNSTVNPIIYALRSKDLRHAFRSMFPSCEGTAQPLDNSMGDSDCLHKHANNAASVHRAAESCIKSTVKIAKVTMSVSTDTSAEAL
SMILES,Ratio Ki (Homo sapiens),Ki (Cannabinoid receptor 2 [1]),Ki (Cannabinoid receptor 1 [2]),Ki (Cannabinoid receptor 2 [3]),Ki (Cannabinoid receptor 1 [4]),IC50 (Cannabinoid receptor 2 [5])
O=C(NC1CCCCC1)c1cn2c3c(cccc3c1=O)OCC2c1ccccc1 (racemic),166,2.52 nM,420 nM,19.3 nM,1150 nM,15.2 nM
O=C(NC1CCCCCC1)c1cn2c3c(cccc3c1=O)OCC2c1ccccc1 (racemic),383,0.81 nM,310 nM,14.7 nM,372 nM,5.23 nM
O=C(NC12CC3CC(CC(C3)C1)C2)c1cn2c3c(cccc3c1=O)OCC2c1ccccc1 (racemic),19,14.2 nM,265 nM,18.3 nM,670 nM,26 nM
CC12CC3CC(C)(C1)CC(NC(=O)c1cn4c5c(cccc5c1=O)OCC4c1ccccc1)(C3)C2 (racemic),133,3.45 nM,460 nM,46 nM,545 nM,18.3 nM
CC1Oc2cccc3c(=O)c(C(=O)NC4CCCCC4)cn(c23)C1c1ccccc1 (racemic),5.83,536 nM,3130 nM,710 nM,3520 nM,2750 nM
CC1Oc2cccc3c(=O)c(C(=O)NC45CC6CC(CC(C6)C4)C5)cn(c23)C1c1ccccc1 (racemic),7.33,332 nM,2440 nM,443 nM,2640 nM,1680 nM
Cc1ccc(C2COc3cccc4c(=O)c(C(=O)NC5CCCCC5)cn2c34)cc1 (racemic),8.78,468 nM,4110 nM,547 nM,4570 nM,2460 nM
Cc1ccc(C2COc3cccc4c(=O)c(C(=O)NC56CC7CC(CC(C7)C5)C6)cn2c34)cc1 (racemic),9.41,412 nM,3880 nM,482 nM,4150 nM,2210 nM
Cc1cc2c3c(c1)c(=O)c(C(=O)NC1CCCCC1)cn3C(c1ccccc1)CO2 (racemic),73,18.4 nM,1350 nM,25 nM,1570 nM,110 nM
CC1COc2cccc3c(=O)c(C(=O)NC4CCCCC4)cn1c23 (racemic),36,60 nM,2150 nM,65 nM,2630 nM,245 nM
O=C(NC1CCCC1)c1cn2c3c(cccc3c1=O)OCC2c1ccccc1 (racemic),1.35,98 nM,132 nM,110 nM,150 nM,472 nM

# Reference: ChEMBL document CHEMBL2163236, “7-Oxo-[1,4]oxazino[2,3,4-ij]quinoline-6-carboxamides as selective CB(2) cannabinoid receptor ligands: structural investigations around a novel class of full agonists” (J Med Chem, 2012)
